Experiment [1] addresses KRAS G12C (Homo sapiens (Human), UniProt P01116, C118A/G12C). The experiment is described as follows: 2 h coupled exchange assay. The class given is biochemical. The conditions noted are these: Avg 2 h Coupled exchange IC50, 2 h compound pre-incubation. On the procedure:
The term “2 h coupled exchange assay” or “20 h coupled exchange assay” as used herein refers to the assay described in the Section entitled “BIOLOGICAL EVALUATION.”

The test system of experiment [2] is MIA PaCa-2 (human pancreatic carcinoma) cells. The experiment is described as follows: Cell Viability Assay (CellTiter-Glo), MIA PaCa-2. The class given is cell-based. On the procedure: Serially-diluted compound or DMSO was added to the cells, and plates were incubated at 37° C., 5% CO2 for 72 h. Cell viability was measured using a CellTiter-Glo® Luminescent Cell Viability Assay kit (Promega) according to the manufacturer's protocol. The luminescence signal of treated samples was normalized to DMSO control, and data were analyzed using a 4-parameter logistic model to calculate IC50 values.
A general note: In ATP-based viability assays light output follows the ATP content of the culture.

The subject of experiment [3] is A549 (human lung carcinoma) cells. The experiment is described as follows: Cell Viability Assay (CellTiter-Glo), A549. It is filed as cell-based. In a few lines:
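After a 72 h exposure to serial compound dilutions at 37° C, luminescent ATP content was measured with CellTiter-Glo. The cells were A549 or MIA PaCa-2, seeded at 1.67E+04 cells/mL in RPMI 1640 with 10% serum. Signals were normalized to DMSO controls and IC50 fitted with a 4-parameter logistic model.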

Setting [4] is: SOS-mediated nucleotide exchange.

The results in this text go back to patent US20240059703A1 (AMGEN INC., priority 2021, published 2024).

For orientation: IC50 means the concentration needed to halve the response being measured. A low value points to inhibition by little substance.

KRAS G12C, sequence (P01116 other isoform, or with tags, fused parts or gaps G12C/C118A): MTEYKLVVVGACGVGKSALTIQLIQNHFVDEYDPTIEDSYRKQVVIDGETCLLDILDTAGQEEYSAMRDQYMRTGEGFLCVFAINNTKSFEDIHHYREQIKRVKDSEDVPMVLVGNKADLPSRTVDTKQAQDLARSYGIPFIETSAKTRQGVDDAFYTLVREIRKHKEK

In the case of `C=CC(=O)N1CC2(CCN(c3nc4c(c(-c5c(C)ccc6[nH]ncc56)c3C)COC(C)(C)C4)C2)C1` [Example 14-23, 1-(6-(3,7,7-trimethyl-4-(5-methyl-1H-indazol-4-yl)-7,8-dihydro-5H-pyrano[4,3-b]pyridin-2-yl)-2,6-diazaspiro[3.4]octan-2-yl)-2-propen-1-one], the IC50 was 102 nM in experiment [1]; 18 nM in experiment [2] (Homo sapiens, MIA PaCa-2, 72 h); greater than 5000 nM in experiment [3] (Homo sapiens, A549, 72 h).

Take `C=CC(=O)N1CC2(CCN(c3nc4cc(-c5scnc5C)ccc4c(-c4c(O)cccc4F)c3C#N)C2)C1` [Example 19-3, 4-(2-fluoro-6-hydroxyphenyl)-7-(4-methyl-1,3-thiazol-5-yl)-2-(2-(2-propenoyl)-2,6-diazaspiro[3.4]octan-6-yl)-3-quinolinecarbonitrile]: the half-inhibitory concentration (IC50) in experiment [1] came out at 58 nM; in experiment [2] (Homo sapiens, MIA PaCa-2, 72 h), 717 nM; in experiment [3] (Homo sapiens, A549, 72 h), 4180 nM.

Consider `C=CC(=O)N1CC2(CCN(c3nc4ccccc4c(-c4c(C)c(F)cc5[nH]ncc45)c3C#N)C2)C1` [Example 14-2, 4-(6-fluoro-5-methyl-1H-indazol-4-yl)-2-(2-(2-propenoyl)-2,6-diazaspiro[3.4]octan-6-yl)-3-quinolinecarbonitrile], for which the IC50 was 87 nM in experiment [1] (setting [4]); 458 nM in experiment [2] (Homo sapiens, MIA PaCa-2, 72 h); greater than 5000 nM in experiment [3] (Homo sapiens, A549, 72 h).

With `C=CC(=O)N1CC2(CCN(c3nc4cc(-n5cncc5C)ccc4c(-c4ccccc4Cl)c3C#N)C2)C1` [Example 17-7, 4-(2-chlorophenyl)-7-(5-methyl-1H-imidazol-1-yl)-2-(2-(2-propenoyl)-2,6-diazaspiro[3.4]octan-6-yl)-3-quinolinecarbonitrile], the IC50 worked out at 126 nM in experiment [1]; 1800 nM in experiment [2] (Homo sapiens, MIA PaCa-2, 72 h); 3100 nM in experiment [3] (Homo sapiens, A549, 72 h).

For the compound `C=CC(=O)N1CC2(CCN(c3nc4c(c(-c5cccc6cc(O)ccc56)c3C)CCN(C(C)=O)C4)C2)C1` [Example 18-10, 1-(6-(7-acetyl-4-(6-hydroxy-1-naphthalenyl)-3-methyl-5,6,7,8-tetrahydro-1,7-naphthyridin-2-yl)-2,6-diazaspiro[3.4]octan-2-yl)-2-propen-1-one], the IC50 in experiment [1] is 260 nM; in experiment [2] (Homo sapiens, MIA PaCa-2, 72 h), 381 nM; in experiment [3] (Homo sapiens, A549, 72 h), greater than 5000 nM.

With `C=CC(=O)N1CC2(CCN(c3nc4c(c(-c5c(C)ccc6[nH]ncc56)c3C)CCN(C(C)C)C4)C2)C1` (single isomer, unassigned) [Example 18-22, (M)-1-(6-(3-methyl-4-(5-methyl-1H-indazol-4-yl)-7-(2-propanyl)-5,6,7,8-tetrahydro-1,7-naphthyridin-2-yl)-2,6-diazaspiro[3.4]octan-2-yl)-2-propen-1-one], the IC50 in experiment [1] is 6880 nM; in experiment [2] (72 h), 804 nM; in experiment [3] (72 h), greater than 20000 nM.

With `C=CC(=O)N1CC2(CCN(c3nc4c(c(-c5ncccc5F)c3C#N)CCC(c3scnc3C)=C4)C2)C1` [Example 23-49, 4-(3-fluoro-2-pyridinyl)-7-(4-methyl-1,3-thiazol-5-yl)-2-(2-(2-propenoyl)-2,6-diazaspiro[3.4]octan-6-yl)-5,6-dihydro-3-quinolinecarbonitrile], the IC50 was 197 nM in experiment [1]; 670 nM in experiment [2] (Homo sapiens, MIA PaCa-2, 72 h); greater than 5000 nM in experiment [3] (Homo sapiens, A549, 72 h).

Consider `C=CC(=O)N1CC2(CCN(c3nc4c(c(-c5ccccc5F)c3C#N)CCN(c3scnc3C)[C@H]4C)C2)C1` [Example 21-6, (8S)-4-(2-fluorophenyl)-8-methyl-7-(4-methyl-1,3-thiazol-5-yl)-2-(2-(2-propenoyl)-2,6-diazaspiro[3.4]octan-6-yl)-5,6,7,8-tetrahydro-1,7-naphthyridine-3-carbonitrile], for which the IC50 in experiment [1] stood at 930 nM; in experiment [2] (Homo sapiens, MIA PaCa-2, 72 h), 4570 nM; in experiment [3] (Homo sapiens, A549, 72 h), 11200 nM.

As for `C=CC(=O)N1CC2(CCN(c3nc4c(c(-c5c(C)ccc6cnn(C)c56)c3C#N)CC[C@@H]3C[C@H]43)C2)C1` (single isomer, unassigned) [Example 13-136, (6a,7a)-4-(1,6-dimethyl-1H-indazol-7-yl)-2-(2-(2-propenoyl)-2,6-diazaspiro[3.4]octan-6-yl)-6,6a,7,7a-tetrahydro-5H-cyclopropa[h]quinoline-3-carbonitrile], the IC50 is 78 nM in experiment [1] (setting [4]); 401 nM in experiment [2] (Homo sapiens, MIA PaCa-2, 72 h); greater than 5000 nM in experiment [3] (Homo sapiens, A549, 72 h).

In the case of `C=CC(=O)N1CC2(CCN(c3nc4c(c(-c5cc(O)cc6ccccc56)c3C#N)COC(C)(C)C4)C2)C1` (single isomer, unassigned) [Example 13-43, (P)-4-(3-hydroxy-1-naphthalenyl)-7,7-dimethyl-2-(2-(2-propenoyl)-2,6-diazaspiro[3.4]octan-6-yl)-7,8-dihydro-5H-pyrano[4,3-b]pyridine-3-carbonitrile], the IC50 was 16 nM in experiment [1] (setting [4]); 143 nM in experiment [2] (Homo sapiens, MIA PaCa-2, 72 h); greater than 5000 nM in experiment [3] (Homo sapiens, A549, 72 h).

Regarding `C=CC(=O)N1CC2(CCN(c3nc4cc(-c5cncnc5)ccc4c(-c4ccc(F)cc4F)c3C#N)C2)C1` [Example 20-12, 4-(2,4-difluorophenyl)-2-(2-(2-propenoyl)-2,6-diazaspiro[3.4]octan-6-yl)-7-(5-pyrimidinyl)-3-quinolinecarbonitrile], the IC50 in experiment [1] is 245 nM; in experiment [2] (Homo sapiens, MIA PaCa-2, 72 h) it was 2060 nM; in experiment [3] (Homo sapiens, A549, 72 h), greater than 25000 nM.

With `C=CC(=O)N1CC2(CCN(c3nc4c(c(-c5c(F)ccc6[nH]ncc56)c3C)CCN(C(C)C)C4)C2)C1` [Example 18-15, 1-(6-(4-(5-fluoro-1H-indazol-4-yl)-3-methyl-7-(2-propanyl)-5,6,7,8-tetrahydro-1,7-naphthyridin-2-yl)-2,6-diazaspiro[3.4]octan-2-yl)-2-propen-1-one], the IC50 was 720 nM in experiment [1]; 230 nM in experiment [2] (Homo sapiens, MIA PaCa-2, 72 h); greater than 25000 nM in experiment [3] (Homo sapiens, A549, 72 h).

For `C=CC(=O)N1CC2(CCN(c3nc4c(c(-c5c(C)ccc6cnn(C)c56)c3C#N)CCC3CC43)C2)C1` [Example 13-116, (6aR,7aS)-4-(1,6-dimethyl-1H-indazol-7-yl)-2-(2-(2-propenoyl)-2,6-diazaspiro[3.4]octan-6-yl)-6,6a,7,7a-tetrahydro-5H-cyclopropa[h]quinoline-3-carbonitrile|(6aS,7aR)-4-(1,6-dimethyl-1H-indazol-7-yl)-2-(2-(2-propenoyl)-2,6-diazaspiro[3.4]octan-6-yl)-6,6a,7,7a-tetrahydro-5H-cyclopropa[h]quinoline-3-carbonitrile], the IC50 in experiment [1] (setting [4]) is 30 nM; in experiment [2] (Homo sapiens, MIA PaCa-2, 72 h) it was 775 nM; in experiment [3] (Homo sapiens, A549, 72 h) it was greater than 5000 nM.

Turning to `C=CC(=O)N1CC2(CCN(c3nc4c(c(-c5ccccc5C)c3C#N)CCC(c3scnc3C)=C4)C2)C1` (single isomer, unassigned) [Example 23-24, (P)-4-(2-methylphenyl)-7-(4-methyl-1,3-thiazol-5-yl)-2-(2-(2-propenoyl)-2,6-diazaspiro[3.4]octan-6-yl)-5,6-dihydro-3-quinolinecarbonitrile], the values for the IC50 in experiment [1], in experiment [2] (72 h) and in experiment [3] (72 h) were 71 nM, 705 nM and greater than 5000 nM, respectively.

Regarding `C=CC(=O)N1CC2(CCN(c3nc4c(c(-c5c(C)ccc6[nH]ncc56)c3F)C[C@H]3C[C@@H]4C3(C)C)C2)C1` [Example 14-72, 1-(6-((1R,9R)-5-fluoro-10,10-dimethyl-6-(5-methyl-1H-indazol-4-yl)-3-azatricyclo[7.1.1.0^2,7]undeca-2,4,6-trien-4-yl)-2,6-diazaspiro[3.4]octan-2-yl)-2-propen-1-one], the IC50 was 30 nM in experiment [1]; 24 nM in experiment [2] (Homo sapiens, MIA PaCa-2, 72 h); greater than 5000 nM in experiment [3] (Homo sapiens, A549, 72 h).

On to `C=CC(=O)N1CC2(CCN(c3nc4c(c(-c5cc(O)ccc5F)c3C#N)CCC(c3scnc3C)=C4)C2)C1` [Example 23-47, 4-(2-fluoro-5-hydroxyphenyl)-7-(4-methyl-1,3-thiazol-5-yl)-2-(2-(2-propenoyl)-2,6-diazaspiro[3.4]octan-6-yl)-5,6-dihydro-3-quinolinecarbonitrile], for which the IC50 in experiment [1] is 44 nM; in experiment [2] (Homo sapiens, MIA PaCa-2, 72 h), greater than 5000 nM; in experiment [3] (Homo sapiens, A549, 72 h), greater than 5000 nM.

`C=CC(=O)N1CC2(CCN(c3nc4cc(-n5ccnc5C)ccc4c(-c4ccccc4F)c3C#N)C2)C1` [Example 17-5, 4-(2-fluorophenyl)-7-(2-methyl-1H-imidazol-1-yl)-2-(2-(2-propenoyl)-2,6-diazaspiro[3.4]octan-6-yl)-3-quinolinecarbonitrile]: the IC50 in experiment [1] stood at 70 nM; in experiment [2] (Homo sapiens, MIA PaCa-2, 72 h), 1270 nM; in experiment [3] (Homo sapiens, A549, 72 h) it was 4430 nM.

As to `C=CC(=O)N1CC2(CCN(c3nc4c(c(-c5cc(O)c(F)c6ccccc56)c3C#N)COC(C)(C)C4)C2)C1` (single isomer, unassigned) [Example 13-78, (P)-4-(4-fluoro-3-hydroxy-1-naphthalenyl)-7,7-dimethyl-2-(2-(2-propenoyl)-2,6-diazaspiro[3.4]octan-6-yl)-7,8-dihydro-5H-pyrano[4,3-b]pyridine-3-carbonitrile], the IC50 was 76 nM in experiment [1] (setting [4]); 842 nM in experiment [2] (Homo sapiens, MIA PaCa-2, 72 h); greater than 5000 nM in experiment [3] (Homo sapiens, A549, 72 h).

With `C=CC(=O)N1CC2(CCN(c3nc4c(c(-c5cc(O)cc6ccccc56)c3C#N)CC(C)(C)C4)C2)C1` (single isomer, unassigned) [Example 13-69, (P)-4-(3-hydroxy-1-naphthalenyl)-6,6-dimethyl-2-(2-(2-propenoyl)-2,6-diazaspiro[3.4]octan-6-yl)-6,7-dihydro-5H-cyclopenta[b]pyridine-3-carbonitrile], the IC50 in experiment [1] (setting [4]) is 27 nM; in experiment [2] (Homo sapiens, MIA PaCa-2, 72 h), 217 nM; in experiment [3] (Homo sapiens, A549, 72 h), 3230 nM.
